One experiment has as its system DU-145. Kind of experiment: Cytotoxicity against human DU145 cells after 48 hrs by SRB assay. Type of experiment: functional. The settings on record: DU-145, 48 h. A general note: Sulforhodamine B stains cellular protein and so reports cell mass.
A further experiment deals with BXPC-3. Kind of experiment: Cytotoxicity against human BxPC3 cells after 48 hrs by SRB assay. Type of experiment: functional. The settings on record: BXPC-3, 48 h.
For the next experiment, the system named is Cryptococcus neoformans. Kind of experiment: Antimicrobial activity against Cryptococcus neoformans. Type of experiment: functional, organism-based.
The test system of a further experiment is KM-20L2. Nature of the experiment: Cytotoxicity against human KM20L2 cells after 48 hrs by SRB assay. The settings on record: KM-20L2, 48 h. Type of experiment: functional.
A further experiment deals with MCF7. Nature of the experiment: Cytotoxicity against human MCF7 cells after 48 hrs by SRB assay. Type of experiment: functional. The settings on record: MCF7, 48 h.
The subject of the next experiment is P388. Kind of experiment: Cytotoxicity against mouse P388 cells after 48 hrs by SRB assay. Type of experiment: functional. The settings on record: P388, 48 h.
Another experiment deals with SF-268. Nature of the experiment: Cytotoxicity against human SF268 cells after 48 hrs by SRB assay. Type of experiment: functional. The settings on record: SF-268, 48 h.
A further experiment concerns Enterobacter cloacae. Nature of the experiment: Antimicrobial activity against Enterobacter cloacae. Type of experiment: functional, organism-based.
The next experiment concerns Candida albicans. Nature of the experiment: Antimicrobial activity against Candida albicans. Type of experiment: functional, organism-based.
A further experiment concerns Micrococcus luteus. Nature of the experiment: Antimicrobial activity against Micrococcus luteus. Type of experiment: functional, organism-based.
The next experiment deals with Staphylococcus aureus. Nature of the experiment: Antimicrobial activity against Staphylococcus aureus. Type of experiment: functional, organism-based.
The subject of the next experiment is Neisseria gonorrhoeae. Kind of experiment: Antimicrobial activity against Neisseria gonorrhoeae. Type of experiment: functional.
The next experiment deals with Streptococcus pneumoniae. Kind of experiment: Antimicrobial activity against Streptococcus pneumoniae. Type of experiment: functional, organism-based.
The test system of experiment [1] is Stenotrophomonas maltophilia. Nature of the experiment: Antimicrobial activity against Stenotrophomonas maltophilia. Type of experiment: functional, organism-based.
A further experiment concerns NCI-H460. Kind of experiment: Cytotoxicity against human NCI-H460 cells after 48 hrs by SRB assay. Type of experiment: functional. The settings on record: NCI-H460, 48 h.
In another experiment the test system is Escherichia coli. Kind of experiment: Antimicrobial activity against Escherichia coli. Type of experiment: functional.

In brackets after ≈: the same amount, converted by molar mass. Activity calls are given as the source filed them. No cut-off for these calls is given here. Where only a bound is given, the exact number is not on record here.

For orientation: GI50 means the concentration giving 50% growth inhibition. A higher GI50 goes with lower sensitivity of the cells. By MIC is commonly meant the lowest concentration that inhibits growth of the organism. Regarding `COc1cc([C@H]2Oc3cc(-c4cc(=O)c5c(O)cc(O)cc5o4)ccc3O[C@@H]2CO)ccc1O` [HYDNOCARPIN], the GI50 in the experiment with DU-145 was 1.9 µg/mL (≈ 4.09 µM); in the experiment on BXPC-3 it was 1.5 µg/mL (≈ 3.23 µM); in the experiment on KM-20L2, 2 µg/mL (≈ 4.31 µM); in the experiment with MCF7, 2.7 µg/mL (≈ 5.81 µM); in the experiment on P388 it was 9.5 µg/mL (≈ 20.5 µM); in the experiment on SF-268, 2.6 µg/mL (≈ 5.6 µM). The compound further registered a concentration for 50% growth inhibition (GI50) in the experiment on NCI-H460 of 2.3 µg/mL (≈ 4.95 µM). Moreover, the result in the experiment on Cryptococcus neoformans, with Enterobacter cloacae, with Candida albicans, in the experiment on Micrococcus luteus, in the experiment with Staphylococcus aureus and in the experiment on Streptococcus pneumoniae was inactive. The outcome in experiment [1] was inactive. This compound returned a minimal inhibitory concentration (MIC) in the experiment on Neisseria gonorrhoeae of 0.5 µg/mL (≈ 1.08 µM).
Consider `COc1cc([C@H]2Oc3cc(-c4cc(=O)c5c(O)cc(O)cc5o4)cc(OC)c3O[C@@H]2CO)cc(OC)c1O` [PALSTATIN], for which the 50% growth inhibitory concentration (GI50) in the experiment with DU-145 is greater than 10 µg/mL; in the experiment with BXPC-3, 3.2 µg/mL (≈ 6.1 µM); in the experiment on KM-20L2, greater than 10 µg/mL; with MCF7, 3.6 µg/mL (≈ 6.86 µM); in the experiment on P388, 8.5 µg/mL (≈ 16.2 µM); in the experiment with SF-268, greater than 10 µg/mL. Besides, halving of growth in the experiment with NCI-H460 (GI50) required 5.9 µg/mL (≈ 11.2 µM). Besides, the result in the experiment with Cryptococcus neoformans, with Enterobacter cloacae, in the experiment on Candida albicans, in the experiment on Micrococcus luteus, in the experiment on Staphylococcus aureus and in the experiment on Streptococcus pneumoniae was inactive. Also, in experiment [1], the outcome was inactive. Further, in the experiment with Neisseria gonorrhoeae, it took 1 µg/mL (≈ 1.91 µM) to inhibit growth (MIC).
On to `COc1cc([C@H]2Oc3cc(-c4cc(=O)c5c(O)cc(O)cc5o4)cc(OC)c3O[C@@H]2CO)ccc1O`, for which the GI50 in the experiment with DU-145 came to 1.8 µg/mL (≈ 3.64 µM); in the experiment on BXPC-3, 1.8 µg/mL (≈ 3.64 µM); in the experiment with KM-20L2 it was 1.9 µg/mL (≈ 3.84 µM); with MCF7 it was 2.4 µg/mL (≈ 4.85 µM); with P388 it was 2.7 µg/mL (≈ 5.46 µM); with SF-268, 2.2 µg/mL (≈ 4.45 µM). The same compound showed a 50% growth inhibitory concentration (GI50) with NCI-H460 of 2 µg/mL (≈ 4.04 µM). Moreover, the result with Cryptococcus neoformans, in the experiment with Enterobacter cloacae, with Candida albicans, in the experiment on Micrococcus luteus, in the experiment on Staphylococcus aureus and in the experiment with Streptococcus pneumoniae was inactive. For the same compound, in experiment [1], the outcome was inactive. In addition, the minimum inhibitory concentration (MIC) in the experiment on Escherichia coli came to 32 µg/mL (≈ 64.7 µM); against Neisseria gonorrhoeae, 0.625 µg/mL (≈ 1.26 µM).
Turning to `O=c1cc(-c2ccc(O)c(O)c2)oc2cc(O)cc(O)c12` [LUTEOLIN], the GI50 in the experiment with DU-145 is 4.4 µg/mL (≈ 15.4 µM); in the experiment on BXPC-3 it was greater than 10 µg/mL; in the experiment with KM-20L2, greater than 10 µg/mL; in the experiment with MCF7, 9.4 µg/mL (≈ 32.8 µM); in the experiment with P388, greater than 10 µg/mL; in the experiment on SF-268 it was 9 µg/mL (≈ 31.4 µM). Growth with NCI-H460 was halved (GI50) at 3.8 µg/mL (≈ 13.3 µM). For the same compound, the result with Cryptococcus neoformans, in the experiment on Enterobacter cloacae, with Candida albicans, in the experiment on Micrococcus luteus, in the experiment on Staphylococcus aureus and in the experiment on Streptococcus pneumoniae was inactive. Also, the outcome in experiment [1] was inactive. Moreover, the minimal inhibitory concentration (MIC) in the experiment with Escherichia coli was found to be 64 µg/mL (≈ 224 µM); in the experiment on Neisseria gonorrhoeae it was 16 µg/mL (≈ 55.9 µM).
For the compound `COc1cc(-c2cc(=O)c3c(O)cc(O)cc3o2)ccc1O` [CHRYSOERIOL], the GI50 in the experiment with DU-145 worked out at 1.1 µg/mL (≈ 3.66 µM); in the experiment with BXPC-3 it was 2.6 µg/mL (≈ 8.66 µM); in the experiment with KM-20L2, 2.5 µg/mL (≈ 8.33 µM); in the experiment with MCF7, 3.1 µg/mL (≈ 10.3 µM); in the experiment on P388, 4 µg/mL (≈ 13.3 µM); with SF-268 it was 1.7 µg/mL (≈ 5.66 µM). The same compound yielded a GI50 in the experiment with NCI-H460 of 2.1 µg/mL (≈ 6.99 µM). The result in the experiment with Cryptococcus neoformans, in the experiment on Enterobacter cloacae, in the experiment on Candida albicans, in the experiment on Micrococcus luteus, in the experiment with Staphylococcus aureus and in the experiment on Streptococcus pneumoniae was inactive. The result in [1] was inactive.
Take `COc1cc(-c2cc(=O)c3c(O)cc(O)cc3o2)cc(OC)c1O` [TRICIN]: the GI50 was 4.6 µg/mL (≈ 13.9 µM) in the experiment on DU-145; 7.5 µg/mL (≈ 22.7 µM) in the experiment with BXPC-3; greater than 10 µg/mL with KM-20L2; 7.7 µg/mL (≈ 23.3 µM) with MCF7; greater than 10 µg/mL in the experiment on P388; 3 µg/mL (≈ 9.08 µM) with SF-268. For the same compound, in the experiment on NCI-H460, the GI50 stood at 6.5 µg/mL (≈ 19.7 µM). In addition, the outcome in the experiment on Cryptococcus neoformans, with Enterobacter cloacae, in the experiment on Candida albicans, in the experiment with Micrococcus luteus, with Staphylococcus aureus and with Streptococcus pneumoniae was inactive. Besides, in experiment [1], the result was inactive.

For the origin of these results see ChEMBL document CHEMBL1159343, “Isolation and structure of palstatin from the Amazon tree Hymeneae palustris(1)” (2003).
